By inhibition is commonly meant the percentage by which the read-out fell short of the control.

One experiment deals with T1, olfactory receptor OR5K1 (Homo sapiens, UniProt Q8NHB7).
T1 construct: expressed in transfected cells; host or cells: HEK293
T1 sequence (Q8NHB7 1-308): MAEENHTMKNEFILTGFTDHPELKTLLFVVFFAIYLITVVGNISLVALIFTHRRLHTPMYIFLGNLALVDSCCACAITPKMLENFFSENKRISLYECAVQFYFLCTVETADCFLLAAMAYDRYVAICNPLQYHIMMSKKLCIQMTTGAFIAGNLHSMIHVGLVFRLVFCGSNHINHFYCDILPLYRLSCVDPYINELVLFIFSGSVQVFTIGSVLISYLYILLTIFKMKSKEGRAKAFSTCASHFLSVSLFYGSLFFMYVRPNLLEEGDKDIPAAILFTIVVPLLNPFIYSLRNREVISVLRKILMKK
Description: Antagonistic activity against OR5K1: inhibition of the receptor response to 2,6-dimethylpyrazine (luciferase assay, HEK293 cells). It counts as cell-based. The note with it: 2,6-dimethylpyrazine 1 mM + test substance 300 μM, cytotoxic flavoring agents re-evaluated at 333 μM 2,6-dimethylpyrazine + 100 μM test substance, read-out: Inhibition rate (receptor response-inhibiting rate). As to the method: The receptor response-inhibiting rate of a test substance was calculated as follows. The receptor activity (X-Y) by stimulation with 2,6-dimethylpyrazine alone was determined by subtracting the luminescence value (Y) in cells to which the receptor was introduced but were not stimulated with 2,6-dimethylpyrazine from the luminescence value (X) derived from firefly luciferase induced by stimulation with 2,6-dimethylpyrazine alone. Similarly, the receptor activity (Z-Y) in the presence of a test substance was determined by subtracting the luminescence value (Y) in cells not stimulated with 2,6-dimethylpyrazine from the luminescence value (Z) stimulated with a mixture of 2,6-dimethylpyrazine and the test substance. The reduction rate of the receptor activity (Z-Y) in the presence of a test substance to the receptor activity (X-Y) by stimulation with 2,6-dimethylpyrazine alone was calculated by the following computation expression: Inhibition rate (%)={1−(Z−Y)/(X−Y)}×100, to determine the receptor response-inhibiting rate of the test substance. In the measurement, multiple independent experiments were performed in duplicate, and the average of each experiment was used.
Regarding `CC(C=O)C1CCCCC1` (stereo not shown) [2-cyclohexylpropanal], the inhibition at 300 µM is at least 50%. On the same count and under the same terms, in the case of `CC1(C)CCCC2(C)C1CCC1(C)OCCC12` (stereo not shown) [dodecahydro-3a,6,6,9a-tetramethylnaphtho[2,1-b]furan] it was at least 50%; in that of `CC(C=O)Cc1ccc(C(C)C)cc1` (stereo not drawn) [α-methyl-4-(1-methylethyl)-benzenepropanal], at least 75%; in that of `CCC(O)COC1CCCCC1C(C)(C)C` (stereo not shown) [1-(2-tert-butylcyclohexyloxy)-2-butanol], at least 75%. For the molecule `C=CCCC(=O)C1=CCCC(C)(C)C1` [1-(5,5-dimethyl-1-cyclohexen-1-yl)-4-penten-1-one], the inhibition at 300 µM was at least 40%. Still for that read-out and setting: the value for `CC(=O)c1c(C)c([N+](=O)[O-])c(C(C)(C)C)c([N+](=O)[O-])c1C` [4-tert-butyl-2,6-dimethyl-3,5-dinitroacetophenone] was at least 40%; that for `CCCCCC1=C(C)CCC1=O` [2-pentyl-3-methyl-2-cyclopenten-1-one] was at least 40%; that for `C=C(OCC)C1C(C)(C)CC(=O)CC1(C)C` [4-(1-ethoxyvinyl)-3,3,5,5-tetramethylcyclohexanone] was at least 50%.

Consider `O=C(OCCc1ccccc1)c1ccccc1O` [phenylethyl salicylate], for which the inhibition at 300 µM is at least 75%.

For the molecule `CC(C=O)c1ccccc1` (stereo not shown) [2-phenylpropionaldehyde], the inhibition at 300 µM was at least 50%. The same measure, in the same setting: in the case of `CC=Cc1ccc(OCc2ccccc2)c(OC)c1` [2-methoxy-1-(phenylmethoxy)-4-(1-propenyl)-benzene] it was at least 50%. Still for that read-out and setting: the value for `CC(=O)c1cc(C(C)(C)C)cc2c1C=CC2(C)C` [6-tert-butyl-1,1-dimethylinden-4-yl methyl ketone] was at least 40%. Turning to `CC(C)=CCC/C(C)=C/CO` [(E)-3,7-dimethyl-2,6-octadien-1-ol], the inhibition at 300 µM was at least 40%. On to `CC(=O)C1(C)CC2=C(CCCC2(C)C)CC1C` (stereo not shown) [7-acetyl-1,2,3,4,5,6,7,8-octahydro-1,1,6,7-tetramethyl-naphthalene], for which the inhibition at 300 µM was at least 75%.

Take `CC(C)CCCC(C)CCO` (stereo not shown) [3,7-dimethyl-1-octanol]: the inhibition at 300 µM was at least 50%.

With `CC(C)=CCCC(C)CCOCC=O` (stereo not shown) [6,10-dimethyl-3-oxa-9-undecenal], the inhibition at 300 µM is at least 40%.

With `CC(=CCC1CC=C(C)C1(C)C)CO` (stereo not shown) [2-methyl-4-(2,2,3-trimethyl-3-cyclopenten-1-yl)-2-buten-1-ol], the inhibition at 300 µM was at least 50%. In the case of `CC=CC(=O)C1=C(C)C=CCC1(C)C` [1-(2,6,6-trimethyl-1,3-cyclohexadien-1-yl)-2-buten-1-one], the inhibition at 300 µM is at least 40%. For `CCC=C(C)C(O)CCCCC` (stereo not shown) [4-methyl-3-decen-5-ol], the inhibition at 300 µM is at least 75%. Turning to `CC(C)=CCCC(C)=CC=O` [3,7-dimethyl-2,6-octadienal], the inhibition at 300 µM was at least 75%.

Turning to `CCOCOC1CCCCCCCCCCC1` [formaldehyde cyclododecyl ethyl acetal], the inhibition at 300 µM was at least 50%.

`Cc1ccc(C(C)C)c(O)c1` [5-methyl-2-(1-methylethyl)-phenol]: the inhibition at 300 µM is at least 75%.

Take `CC(C)[C@H]1CC[C@@H](CO)CC1` [cis-4-isopropylcyclohexylmethanol]: the inhibition at 300 µM was at least 40%. On the same count and under the same terms, the value for `CC(=O)C1=C(C)C2CC3(C1)C(C)CCC3C2(C)C` (stereo not shown) [1-(2,3,4,7,8,8a-hexahydro-3,6,8,8-tetramethyl-1H-3a,7-methanoazulen-5-yl)-ethanone] was at least 50%. `C=CCc1ccc(O)c(OC)c1` [1-allyl-3-methoxy-4-hydroxybenzene]: the inhibition at 300 µM is at least 40%. The same measure, in the same setting: the value for `CC(C=O)Cc1ccc(C(C)(C)C)cc1` (stereo not drawn) [α-methyl-β-(p-tert-butylphenyl)-propionaldehyde] was at least 50%. Same read-out and setting: the value for `CC(C)=CCCC(C)CC=O` (stereo not shown) [3,7-dimethyl-6-octenal] was at least 50%.

`CCC(=CCC1CC=C(C)C1(C)C)CO` (stereo not shown) [2-ethyl-4-(2,2,3-trimethyl-3-cyclopenten-1-yl)-2-buten-1-ol]: the inhibition at 300 µM was at least 75%. Same read-out and setting: in the case of `CC(=O)O[C@]1(C)CC[C@@]23C[C@@H]1C(C)(C)[C@@H]2CC[C@H]3C` [cedryl acetate] it was at least 50%; in that of `O=C1CCCCCCCCCCCC(=O)OCCO1` [1,4-dioxacycloheptadecane-5,17-dione], at least 40%. Still for that read-out and setting: the value for `CCCCCCOC(=O)c1ccccc1O` [hexyl salicylate] was at least 40%; that for `CC(=O)c1cc2c(cc1C)C(C)(C)C(C)CC2(C)C` (stereo not shown) [1-(5,6,7,8-tetrahydro-3,5,5,6,8,8-hexamethyl-2-naphthalenyl)-ethanone] was at least 75%; that for `O=CC=Cc1ccccc1` [cinnamaldehyde] was at least 50%.

System in a further experiment: not listed separately
As to the kind of experiment: Sensory test of ability to reduce the odor of 2,6-dimethylpyrazine on cloth. The note with it: 0.5 μL flavoring agent on 0.5 g cloth containing 1% 2,6-dimethylpyrazine; four panelists; FIG. 3. The experiment is classed as in vivo. As to the method: The abilities to reduce an odor of a pyrazine derivative by the antagonist substances identified in Example 3 were confirmed by a sensory test.
A flavoring agent (0.5 μL) was added to cloth (0.5 g) containing 2,6-dimethylpyrazine (1%), and the odor thereof was evaluated by comparing the strength of odor of 2,6-dimethylpyrazine of the cloth not applied with flavor by the flavoring agent. The sensory evaluation test was performed by four panelists. In the evaluation, a case where a strong odor of 2,6-dimethylpyrazine was smelled was rated as 1, and a case where the odor of 2,6-dimethylpyrazine was not smelled at all was rated as 5.
On to `CC(=O)C=CC1=C(C)CCCC1(C)C` [4-(2,6,6-trimethyl-1-cyclohexen-1-yl)-3-buten-2-one], for which the “odor of 2,6-dimethylpyrazine inhibited (sensory evaluation, rating 1 strong odor to 5 not smelled)” value is recorded as “inhibited”. For `CCC(O)COC1CCCCC1C(C)(C)C` (stereo not shown) [1-(2-tert-butylcyclohexyloxy)-2-butanol], the “odor of 2,6-dimethylpyrazine inhibited (sensory evaluation, rating 1 strong odor to 5 not smelled)” value is given as “inhibited”. With `CC(=O)/C(C)=C/C1C(C)=CCCC1(C)C` (stereo not drawn) [α-isomethyl ionone], the “odor of 2,6-dimethylpyrazine inhibited (sensory evaluation, rating 1 strong odor to 5 not smelled)” value is on record as “inhibited”. Take `C=CCCC(=O)C1=CCCC(C)(C)C1` [1-(5,5-dimethyl-1-cyclohexen-1-yl)-4-penten-1-one]: the “odor of 2,6-dimethylpyrazine inhibited (sensory evaluation, rating 1 strong odor to 5 not smelled)” value is on record as “inhibited”. Still for that read-out and setting: the value for `CC1C/C=C/CCCCCCCCCC(=O)C1` (stereo not shown) [(5E)-3-methylcyclopenta-5-decen-1-one] was “inhibited”. Still for that read-out and setting: in the case of `CC(C)=CCC/C(C)=C/CO` [(E)-3,7-dimethyl-2,6-octadien-1-ol] it was “inhibited”; in that of `CC(=CCC1CC=C(C)C1(C)C)CO` (stereo not shown) [2-methyl-4-(2,2,3-trimethyl-3-cyclopenten-1-yl)-2-buten-1-ol], “inhibited”. In the case of `CCOC(=O)[C@]12CCC[C@H]1[C@@H]1CC[C@H]2C1` [ethyl-(3aα,4α,7α,3aα)-octahydro-4,7-methano-3aH-indene-3a-carboxylate], the “odor of 2,6-dimethylpyrazine inhibited (sensory evaluation, rating 1 strong odor to 5 not smelled)” value was “inhibited”. Still for that read-out and setting: the value for `CC=CC(=O)C1=C(C)C=CCC1(C)C` [1-(2,6,6-trimethyl-1,3-cyclohexadien-1-yl)-2-buten-1-one] was “inhibited”; that for `CC(C=O)Cc1ccc2c(c1)OCO2` (stereo not drawn) [α-methyl-3,4-methylenedioxyhydrocinnamic aldehyde] was “inhibited”. Same read-out and setting: the value for `CC(=O)c1ccc2ccccc2c1` [β-methyl naphthyl ketone] was “inhibited”; that for `CCC=C(C)C(O)CCCCC` (stereo not shown) [4-methyl-3-decen-5-ol] was “inhibited”. Regarding `CC1=CC(C)C(C=O)CC1` (stereo not shown) [2,4-dimethyl-3-cyclohexene-1-carboxyaldehyde], the “odor of 2,6-dimethylpyrazine inhibited (sensory evaluation, rating 1 strong odor to 5 not smelled)” value is “inhibited”.

With `CCCCCCCC1CCC(=O)O1` (stereo not shown) [γ-undecalactone], the “odor of 2,6-dimethylpyrazine inhibited (sensory evaluation, rating 1 strong odor to 5 not smelled)” value is “inhibited”. Turning to `CCCCCCC(C=O)=Cc1ccccc1` [α-hexylcinnamic aldehyde], the “odor of 2,6-dimethylpyrazine inhibited (sensory evaluation, rating 1 strong odor to 5 not smelled)” value is “inhibited”. The same measure, in the same setting: the value for `CC(C=O)Cc1ccc(C(C)(C)C)cc1` (stereo not drawn) [α-methyl-β-(p-tert-butylphenyl)-propionaldehyde] was “inhibited”.

Values taken from US10159655B2, “Agent for inhibiting odor of pyrazine derivatives” (Kao Corporation, priority 2012, dated 2018).
